Experimental data reported in ChEMBL document CHEMBL1201862, “PubChem BioAssay data set” (2004).
Activity calls are given as the source filed them.

Experiments:
[1] = AlphaScreen signal interference compounds, dose response, artefact control for ARNT-TACC3 interaction inhibitor project, biochemical, luminescence, cherry-pick (AID 651705); format: functional;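 note: AlphaScreen bead proximity signal that flags compounds interfering with the detection technology; potency reflects signal decrease which marks the compound as an assay artifact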
[2] = biological target: T1, Tyrosine-protein phosphatase non-receptor type 5 (Homo sapiens, UniProt P54829); experiment: STEP phosphatase inhibitors, confirmation, biochemical, fluorescence intensity, uHTS hits (AID 602372); format: functional; settings: read-out: IC50_Mean
T1 sequence (P54829 whole entry): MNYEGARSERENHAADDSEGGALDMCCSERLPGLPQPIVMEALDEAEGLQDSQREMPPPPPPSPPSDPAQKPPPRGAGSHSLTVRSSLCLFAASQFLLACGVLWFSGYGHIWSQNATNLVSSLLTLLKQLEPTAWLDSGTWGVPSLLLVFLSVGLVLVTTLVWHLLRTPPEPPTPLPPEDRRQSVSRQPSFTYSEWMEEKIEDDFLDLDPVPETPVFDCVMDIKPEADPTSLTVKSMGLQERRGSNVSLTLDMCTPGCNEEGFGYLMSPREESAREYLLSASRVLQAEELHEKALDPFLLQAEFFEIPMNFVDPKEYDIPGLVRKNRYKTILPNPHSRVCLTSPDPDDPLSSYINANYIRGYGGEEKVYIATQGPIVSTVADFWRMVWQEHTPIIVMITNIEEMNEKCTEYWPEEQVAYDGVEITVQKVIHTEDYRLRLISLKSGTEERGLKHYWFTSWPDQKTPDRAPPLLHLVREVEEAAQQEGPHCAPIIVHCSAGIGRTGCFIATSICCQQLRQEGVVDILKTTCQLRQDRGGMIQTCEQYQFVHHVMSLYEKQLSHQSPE

[3] = biological target: Dual specificity protein phosphatase 3 (Homo sapiens, UniProt P51452); experiment: VHR phosphatase inhibition, dose response, selectivity assay for STEP inhibitor project, biochemical (AID 602374); format: functional; settings: read-out: IC50_Mean
Dual specificity protein phosphatase 3, sequence (P51452 whole entry): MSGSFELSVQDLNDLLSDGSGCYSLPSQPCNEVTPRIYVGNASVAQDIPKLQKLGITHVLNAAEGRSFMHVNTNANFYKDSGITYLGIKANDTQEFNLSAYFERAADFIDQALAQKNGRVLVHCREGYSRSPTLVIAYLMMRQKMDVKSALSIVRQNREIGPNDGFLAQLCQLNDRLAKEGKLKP

[4] = biological target: T2, Tyrosine-protein phosphatase non-receptor type 11 (Homo sapiens, UniProt Q06124); experiment: SHP2 phosphatase inhibition, dose response, selectivity assay for STEP inhibitor project, biochemical (AID 602367); format: functional; settings: read-out: IC50_Mean
T2 sequence (Q06124 whole entry): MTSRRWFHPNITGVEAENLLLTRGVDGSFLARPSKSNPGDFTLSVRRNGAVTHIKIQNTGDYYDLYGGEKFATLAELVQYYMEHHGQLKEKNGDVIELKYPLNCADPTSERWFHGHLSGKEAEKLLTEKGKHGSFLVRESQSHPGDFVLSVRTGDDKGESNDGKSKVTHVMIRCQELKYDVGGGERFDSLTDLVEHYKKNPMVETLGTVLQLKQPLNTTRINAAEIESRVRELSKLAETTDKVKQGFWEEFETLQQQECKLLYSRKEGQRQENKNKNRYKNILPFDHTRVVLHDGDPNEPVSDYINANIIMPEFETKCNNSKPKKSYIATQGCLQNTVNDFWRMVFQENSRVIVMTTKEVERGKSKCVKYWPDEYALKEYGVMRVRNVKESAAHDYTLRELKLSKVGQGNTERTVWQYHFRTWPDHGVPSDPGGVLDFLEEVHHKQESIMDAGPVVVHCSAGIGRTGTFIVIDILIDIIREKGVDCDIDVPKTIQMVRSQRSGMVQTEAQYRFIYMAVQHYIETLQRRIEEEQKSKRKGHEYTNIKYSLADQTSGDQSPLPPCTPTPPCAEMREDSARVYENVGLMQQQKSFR

[5] = test system: Streptococcus sp. 'group A'; experiment: growth inhibition of control SK(-) GAS strain, dose response, counter-screen for streptokinase expression inhibitor project, luminescence, kanamycin, BacTiterGlo, confirmation (AID 1900); format: functional, organism-based
[6] = biological target: T3, Low molecular weight phosphotyrosine protein phosphatase (Homo sapiens, UniProt P24666); format: functional; settings: read-out: IC50_Mean;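 note: Dose-response confirmation assay measuring inhibition of LMPTP enzyme activity by fluorescence intensity read-out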
T3 sequence (P24666 whole entry): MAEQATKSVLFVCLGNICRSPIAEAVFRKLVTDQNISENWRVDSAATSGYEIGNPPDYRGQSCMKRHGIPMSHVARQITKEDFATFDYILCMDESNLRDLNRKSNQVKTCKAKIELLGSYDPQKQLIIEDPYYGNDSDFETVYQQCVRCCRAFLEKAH

Streptococcus = experiment: Group A Streptococcus viability loss, dose response, counter-screen for streptokinase expression inhibitor project, luminescence, BacTiterGlo (AID 1915); format: functional, organism-based;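 note: potency for reduction of bacterial viability or growth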
[7] = A Cell Based Secondary Assay To Explore Cytotoxicity of Compounds that Sensitize Mycobacterium Tuberculosis to Beta-Lactam Antibiotics.; format: functional
[8] = biological target: T4, Orexin/Hypocretin receptor type 1 (Homo sapiens, UniProt O43613); experiment: Homogeneous Time Resolved Fluorescence (HTRF)-based cell-based high throughput dose response assay for antagonists of the orexin 1 receptor (OX1R; HCRTR1). [Related pubchem assays (depositor defined):AID434989, AID435008, AID463079, AID485270, AID492963, AID492964, AID492965, AID493232, AID504717, AID504718]; format: functional
T4 sequence (O43613 whole entry): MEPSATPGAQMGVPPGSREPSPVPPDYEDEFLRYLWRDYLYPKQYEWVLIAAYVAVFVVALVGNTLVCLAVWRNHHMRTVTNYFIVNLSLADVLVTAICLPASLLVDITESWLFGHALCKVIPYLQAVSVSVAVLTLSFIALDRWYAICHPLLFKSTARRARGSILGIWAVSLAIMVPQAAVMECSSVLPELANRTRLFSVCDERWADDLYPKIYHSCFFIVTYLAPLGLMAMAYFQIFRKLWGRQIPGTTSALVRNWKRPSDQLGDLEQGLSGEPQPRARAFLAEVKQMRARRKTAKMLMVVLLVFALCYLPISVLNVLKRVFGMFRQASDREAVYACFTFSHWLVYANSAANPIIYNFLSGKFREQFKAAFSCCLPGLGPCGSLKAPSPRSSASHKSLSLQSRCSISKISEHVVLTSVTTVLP

Orexin receptor type 2 [9] = biological target: T5, Orexin receptor type 2 (Homo sapiens, UniProt O43614); experiment: Counterscreen assay for antagonists of the orexin 1 receptor (OX1R; HCRTR1): Fluorescence-based cell-based dose response assay for antagonists of the orexin 2 receptor (OX2R; HCRTR2), run by assay provider.; format: functional
T5 sequence (O43614 whole entry): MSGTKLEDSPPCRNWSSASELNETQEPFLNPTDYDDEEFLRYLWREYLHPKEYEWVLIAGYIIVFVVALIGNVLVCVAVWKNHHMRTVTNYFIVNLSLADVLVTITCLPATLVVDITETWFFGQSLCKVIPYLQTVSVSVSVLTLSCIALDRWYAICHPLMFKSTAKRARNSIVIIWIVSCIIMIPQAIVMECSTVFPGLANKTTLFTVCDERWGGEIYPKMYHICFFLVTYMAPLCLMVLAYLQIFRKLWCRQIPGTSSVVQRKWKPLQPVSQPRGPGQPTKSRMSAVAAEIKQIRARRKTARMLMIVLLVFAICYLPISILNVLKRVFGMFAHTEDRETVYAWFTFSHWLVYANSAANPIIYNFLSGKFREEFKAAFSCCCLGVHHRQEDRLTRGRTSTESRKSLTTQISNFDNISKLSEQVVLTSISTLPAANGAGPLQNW

[10] = biological target: T4, Orexin/Hypocretin receptor type 1; experiment: Fluorescence-based cell-based high throughput dose response assay for antagonists of the orexin 1 receptor (OX1R; HCRTR1). [Related pubchem assays (depositor defined):AID434989, AID435008, AID463079, AID485270, AID492963, AID492964, AID492965, AID493232, AID504717, AID504718]; format: functional
Orexin receptor type 2 [11] = biological target: T5, Orexin receptor type 2; experiment: Counterscreen assay for antagonists of the orexin 1 receptor (OX1R; HCRTR1): Homogeneous Time Resolved Fluorescence (HTRF)-based cell-based dose response assay for antagonists of the orexin 2 receptor (OX2R; HCRTR2), run by assay provider.; format: functional
[12] = (§1) Counterscreen for antagonists of the orexin 1 receptor (OX1R; HCRTR1): Fluorescence-based cell-based high throughput dose response assay to identify antagonists of the parental CHO cell line. [Related pubchem assays (depositor defined):AID434989, AID435008, AID463079, AID485270, AID492963, AID492964, AID492965, AID493232, AID504699, AID504701]; format: functional
CHO-K1 = experiment: as §1, with “Homogeneous time resolved fluorescence (HTRF)-based” for “Fluorescence-based”, “cell-based” for “cell-based high throughput”, “CHO-K1” for “CHO”; format: functional; settings: Cricetulus griseus;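 note: potency for inhibition of ATP-stimulated IP1 production as antagonists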
[13] = biological target: T6, Aryl hydrocarbon receptor (Homo sapiens, UniProt P35869); settings: Potency;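 note: confirmatory quantitative high-throughput screen measuring activation of the AhR signaling pathway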
T6 sequence (P35869 whole entry): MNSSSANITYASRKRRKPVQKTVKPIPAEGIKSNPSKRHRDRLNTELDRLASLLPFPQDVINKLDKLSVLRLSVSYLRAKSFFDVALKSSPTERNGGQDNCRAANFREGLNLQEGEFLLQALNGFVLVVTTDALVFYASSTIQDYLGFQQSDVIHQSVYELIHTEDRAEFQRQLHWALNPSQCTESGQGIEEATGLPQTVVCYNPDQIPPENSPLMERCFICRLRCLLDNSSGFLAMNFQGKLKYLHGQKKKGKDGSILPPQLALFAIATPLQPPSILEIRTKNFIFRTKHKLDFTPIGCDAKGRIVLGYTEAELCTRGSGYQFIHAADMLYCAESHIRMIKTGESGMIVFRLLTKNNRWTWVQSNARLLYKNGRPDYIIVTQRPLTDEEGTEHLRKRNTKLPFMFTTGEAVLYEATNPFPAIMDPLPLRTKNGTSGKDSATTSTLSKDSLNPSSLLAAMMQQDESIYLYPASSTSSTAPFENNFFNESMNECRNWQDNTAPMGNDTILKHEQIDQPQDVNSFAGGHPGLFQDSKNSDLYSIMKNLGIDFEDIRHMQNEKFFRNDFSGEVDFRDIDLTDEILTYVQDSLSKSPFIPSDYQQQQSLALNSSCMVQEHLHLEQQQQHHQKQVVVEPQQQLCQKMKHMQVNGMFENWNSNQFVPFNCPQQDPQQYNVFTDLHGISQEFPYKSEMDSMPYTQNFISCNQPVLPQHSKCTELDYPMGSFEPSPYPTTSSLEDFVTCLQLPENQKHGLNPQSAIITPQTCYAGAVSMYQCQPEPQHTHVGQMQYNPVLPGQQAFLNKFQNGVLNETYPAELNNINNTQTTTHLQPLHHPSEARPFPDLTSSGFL

Interleukin-8 = biological target: T7, Interleukin-8 (Homo sapiens, UniProt P10145); experiment: Dose Response confirmation of uHTS small molecule hits for cystic fibrosis induced NFkb Inhibitors in a PAF-induced IL8 counterscreen.; format: functional; settings: read-out: IC50_Mean
T7 sequence (P10145 whole entry): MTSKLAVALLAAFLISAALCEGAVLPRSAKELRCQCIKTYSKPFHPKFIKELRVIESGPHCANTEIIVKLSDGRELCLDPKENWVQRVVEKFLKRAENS

[14] = biological target: T8, Adenosylmethionine-8-amino-7-oxononanoate aminotransferase (Mycobacterium tuberculosis, UniProt P9WQ81); experiment: Mycobacterium tuberculosis BioA enzyme inhibitor Measured in Biochemical System Using Plate Reader - 2163-02_Inhibitor_Dose_CherryPick_Activity.; format: functional, Mycobacterium tuberculosis UT205
T8 sequence (P9WQ81 whole entry): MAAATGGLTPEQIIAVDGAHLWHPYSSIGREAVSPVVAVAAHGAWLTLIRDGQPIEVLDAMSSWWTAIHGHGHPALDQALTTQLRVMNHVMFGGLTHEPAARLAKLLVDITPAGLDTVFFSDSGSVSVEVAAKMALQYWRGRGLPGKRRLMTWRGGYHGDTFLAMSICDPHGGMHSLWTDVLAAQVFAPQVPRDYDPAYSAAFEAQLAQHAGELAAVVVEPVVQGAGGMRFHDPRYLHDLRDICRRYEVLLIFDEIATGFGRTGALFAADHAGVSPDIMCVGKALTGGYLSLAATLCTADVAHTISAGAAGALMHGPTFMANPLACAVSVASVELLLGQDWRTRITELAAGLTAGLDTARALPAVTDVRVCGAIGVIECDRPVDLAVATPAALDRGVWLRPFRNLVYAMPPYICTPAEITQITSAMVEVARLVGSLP

COc1ccc(C(=O)Oc2cccc3cccnc23)cc1[N+](=O)[O-]
AC50 [1]: 135 µM (active)

O=C(Nc1nnc(C2=COCCO2)o1)c1ccc(Cl)cc1
AC50 [1]: 85.8 µM (active)

CN1CCC2(CC1)N=C(c1ccc(F)cc1)C(=S)N2
IC50 [2]: 41.6 µM (inactive)
IC50 [3]: 2.69 µM (active)
IC50 [4]: 8.94 µM (active)

C=CC1=C(C(=O)O)N2C(=O)C(NC(=O)Cc3ccccc3)C2SC1 (stereo not given)
EC50 [5]: 0.169 µM (active)
IC50 [6]: 42.8 µM (inactive)
EC50 (Streptococcus): 0.269 µM (active)
IC50 [2]: 52.9 µM (inactive)
IC50 [3]: 7.17 µM (active)
IC50 [4]: 4.42 µM (active)

C=CCn1c(SCc2ccc(C(=O)Nc3nccs3)cc2)nnc1-c1ccc(C)c(Cl)c1
CC50 [7]: 33 µM (active)
IC50 [8]: 0.919 µM (active)
IC50 (Orexin receptor type 2 [9]): 18 µM (inactive)
IC50 [10]: 4.95 µM (active)
IC50 (Orexin receptor type 2 [11]): > 50 µM (inactive)
IC50 [12]: 18.3 µM (inactive)
IC50 (CHO-K1): > 66.2 µM (inactive)

CCOc1ccccc1C(=O)NCCNC(=O)c1ccccc1OCC
IC50 [8]: 4.15 µM (active)
IC50 (Orexin receptor type 2 [9]): > 88.8 µM (inactive)
IC50 [10]: 3.27 µM (active)
IC50 (Orexin receptor type 2 [11]): 2.78 µM (active)
IC50 [12]: > 49.8 µM (inactive)
IC50 (CHO-K1): > 66.2 µM (inactive)

COc1ccc(OC)c(S(=O)(=O)NCC(c2ccco2)N2CCc3ccccc32)c1 (stereo not given)
IC50 [8]: 2.3 µM (active)
IC50 (Orexin receptor type 2 [9]): 10.5 µM (inactive)
IC50 [10]: 2 µM (active)
IC50 (Orexin receptor type 2 [11]): > 50 µM (inactive)
IC50 [12]: > 49.8 µM (inactive)
IC50 (CHO-K1): > 66.2 µM (inactive)

CCNc1nc(NCC)nc(SC)n1
AC50 [13]: 0.447 µM (inconclusive)

C#CCN(C[C@@H]1[C@@H](OC(=O)NC2CC2)[C@@H](OC(=O)NC2CC2)Cn2c(=O)ccc(=O)n21)S(=O)(=O)c1ccc(C)cc1
IC50 (Interleukin-8): 6.06 µM (active)

CN1c2ccc(-c3cccc(F)c3)cc2[C@H]2[C@H](CCN2C(=O)c2ccc3c(c2)OCO3)[C@H]1CO
AC50 [14]: 0.075 µM (active)

CO[C@H]1CN(C)C(=O)c2ccc(NC(C)=O)cc2OC[C@@H](C)N(C(=O)C2CCCCC2)C[C@H]1C
AC50 [14]: 6.6 µM (active)

Cc1c(NC(=O)c2cc3ccccc3o2)cccc1-n1cnnn1
AC50 [14]: 6.18 µM (active)
